Compound: CC1=C(CC(=O)O)c2cc(F)ccc2/C1=C\c1ccc([S+](C)[O-])cc1 [Sulindac]
Assay: relative viability (nuclei count vs DMSO), 5 days (fraction); higher = more cells survive
Procedure, shortened: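 Cells of lung cancer lines were placed in 1536-well plates and kept overnight at 37 °C. Pinning then delivered five library-drug doses (not always all listed), spaced by √10, onto plates anchored with vehicle, and the cells were left 5 days without changing medium. One step fixed, permeabilised and stained them with Hoechst, and MetaXpress counted nuclei in 4× images. Viability, as a median over plates, is treated-well nuclei divided by vehicle-well nuclei, with acceptance only at control CV below 25% and at least one doubling.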

**Q.** For UMC-11, which relative viability (0.08 µM) is on record?
**A.** Its relative viability is 1.14.

**Q.** And the relative viability (0.253 µM)?
**A.** The relative viability was 1.01.

**Q.** And the relative viability (0.8 µM)?
**A.** Its relative viability is 0.824.

**Q.** And the relative viability (2.53 µM)?
**A.** The relative viability was 0.869.

**Q.** What about the relative viability (8 µM) of the same cell line?
**A.** Its relative viability is 1.11.
